From patent US9745328B2, “Flap modulators” (JANSSEN PHARMACEUTICA NV, priority 2013, dated 2017)
Where a name gives a salt, the structure may show the parent alone.

The compounds below were run against human FLAP (Homo sapiens (Human), UniProt P20292) (assay: FLAP binding assay (HTRF format)). Settings: Table 6 (additional runs), human FLAP wild type.
Outline: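 Averaged over two plates (duplicate wells per plate); output given as HTRF ratio.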

human FLAP, sequence (P20292 whole entry): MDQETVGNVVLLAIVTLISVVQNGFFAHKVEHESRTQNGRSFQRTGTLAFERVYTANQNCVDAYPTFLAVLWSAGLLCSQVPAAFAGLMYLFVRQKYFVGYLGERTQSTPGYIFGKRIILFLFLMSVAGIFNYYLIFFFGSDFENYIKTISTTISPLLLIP

Compound | Ki [nM]
Cc1cccc(-c2ccc(-c3cnc(N)nc3)c(F)c2)c1S(=O)(=O)NC(C)(C)C [Example 287, 4′-(2-Aminopyrimidin-5-yl)-N-tert-butyl-3′-fluoro-3-methylbiphenyl-2-sulfonamide trifluoroacetic acid salt] | 8.5
Nc1ncc(-c2ccc(-c3ccccc3S(=O)(=O)N[C@@H](c3ccccc3)C(F)(F)F)cc2F)cn1 [Example 292, 4′-(2-Aminopyrimidin-5-yl)-3′-fluoro-N-[(1S)-2,2,2-trifluoro-1-phenylethyl]biphenyl-2-sulfonamide trifluoroacetic acid salt] | 9.9
CCNS(=O)(=O)c1ccccc1-c1ccc(-c2cnc(N)nc2)c(F)c1 [Example 295, 4′-(2-Aminopyrimidin-5-yl)-N-ethyl-3′-fluorobiphenyl-2-sulfonamide trifluoroacetic acid salt] | 20
Nc1ncc(-c2ccc(-c3ccccc3S(=O)(=O)N3CCCC3)cc2F)cn1 [Example 298, 5-[3-Fluoro-2′-(pyrrolidin-1-ylsulfonyl)biphenyl-4-yl]pyrimidin-2-amine trifluoroacetic acid salt] | 80.6
C[C@H](NS(=O)(=O)c1ccccc1-c1ccc(-c2cnc(N)nc2)c(F)c1)C(=O)OC(C)(C)C [Example 307, tert-Butyl N-{[4′-(2-aminopyrimidin-5-yl)-3′-fluorobiphenyl-2-yl]sulfonyl}-L-alaninate] | 4.5
Nc1ncc(-c2ccc(-c3ccccc3S(=O)(=O)N3CC4(COC4)C3)cc2F)cn1 [Example 312, 5-(2′-(2-oxa-6-azaspiro[3.3]heptan-6-ylsulfonyl)-3-fluoro-[1,1′-biphenyl]-4-yl)pyrimidin-2-amine] | 323
N#CC1CN(S(=O)(=O)c2ccccc2-c2ccc(-c3cnc(N)nc3)c(F)c2)C1 [Example 314, 1-((4′-(2-aminopyrimidin-5-yl)-3′-fluoro-[1,1′-biphenyl]-2-yl)sulfonyl)azetidine-3-carbonitrile] | 88.8
Nc1ncc(-c2ccc(-c3ccccc3S(=O)(=O)Cc3nc(C4CC4)no3)cc2F)cn1 [Example 321, 5-(2′-{[(3-Cyclopropyl-1,2,4-oxadiazol-5-yl)methyl]sulfonyl}-3-fluorobiphenyl-4-yl)pyrimidin-2-amine] | 505
CNS(=O)(=O)c1cc(C(F)(F)F)ccc1-c1ccc(-c2cnc(N)nc2)c(F)c1 [Example 325, 4′-(2-aminopyrimidin-5-yl)-3′-fluoro-N-methyl-4-(trifluoromethyl)biphenyl-2-sulfonamide] | 4.7
Nc1ccc(-c2ccc(-c3ccccc3S(=O)(=O)NC3CCCCC3)cc2F)cn1 [Example 346, 4′-(6-Aminopyridin-3-yl)-N-cyclohexyl-3′-fluoro-[1,1′-biphenyl]-2-sulfonamide] | 4.5
CC(C)(C)OC(=O)N1CC(O)(CNS(=O)(=O)c2ccccc2-c2ccc(-c3ccc(N)nc3)c(F)c2)C1 [Example 357, tert-butyl 3-((4′-(6-aminopyridin-3-yl)-3′-fluoro-[1,1′-biphenyl]-2-ylsulfonamido)methyl)-3-hydroxyazetidine-1-carboxylate] | 114
Nc1ccc(-c2ccc(-c3ccccc3S(=O)(=O)N3CCC(CCO)CC3)cc2F)cn1 [Example 359] | 4.3
NS(=O)(=O)c1ccccc1-c1ccc(-c2cnc3[nH]ccc3c2)c(F)c1 [Example 368, 3′-Fluoro-4′-(1H-pyrrolo[2,3-b]pyridin 5-yl)biphenyl-2-sulfonamide] | 13.2

The next lines start with the values.

Ki [nM] | Compound
2.4 | CC(C)CNS(=O)(=O)c1ccccc1-c1ccc(-c2cnc(N)nc2)c(F)c1 [Example 294, 4′-(2-Aminopyrimidin-5-yl)-3′-fluoro-N-(2-methylpropyl)biphenyl-2-sulfonamide trifiuoroacetic acid salt]
3.1 | CC(C)(NS(=O)(=O)c1ccccc1-c1ccc(-c2cnc(N)nc2)c(F)c1)C(F)(F)F [Example 296, 4′-(2-Aminopyrimidin-5-yl)-3′-fluoro-N-(2,2,2-trifluoro-1,1-dimethylethyl)biphenyl-2-sulfonamide trifluoroacetic acid salt]
3.2 | C[C@H](NS(=O)(=O)c1ccccc1-c1ccc(-c2cnc(N)nc2)c(F)c1)C(F)(F)F [Example 297, 4′-(2-Aminopyrimidin-5-yl)-3′-fluoro-N-[(1S)-2,2,2-trifluoro-1-methylethyl]biphenyl-2-sulfonamide trifluoroacetic acid salt]
1.6 | CC(C)(C)NS(=O)(=O)c1ccccc1-c1ccc(-c2cnc(N)nc2)c(F)c1 [Example 305, 4′-(2-aminopyrimidin-5-yl)-N-(tert-butyl)-3′-fluoro[1,1′-biphenyl]-2-sulfonamide trifluoroacetic acid salt]
1.3 | Nc1ncc(-c2ccc(-c3ccccc3S(=O)(=O)N3CC(O)(C(F)(F)F)C3)cc2F)cn1 [Example 315]
1.8 | CCNS(=O)(=O)c1cc(C(F)(F)F)ccc1-c1ccc(-c2cnc(N)nc2)c(F)c1 [Example 327]
1.9 | Nc1ncc(-c2ccc(-c3ccccc3Sc3ccnc(N)n3)cc2F)cn1 [Example 335, 4-{[4′-(2-Aminopyrimidin-5-yl)-3′-fluorobiphenyl-2-yl]sulfanyl}pyrimidin-2-amine formate salt]
1.8 | CC(C)(C)NS(=O)(=O)c1ccccc1-c1ccc(-c2ccc(N)nc2)c(F)c1 [Example 342]
4.3 | CCN(CC)S(=O)(=O)c1ccccc1-c1ccc(-c2ccc(N)nc2)c(F)c1 [Example 343, 4′-(6-aminopyridin-3-yl)-N,N-diethyl-3′-fluoro-[1,1′-biphenyl]-2-sulfonamide]
0.9 | CCC(C)(C)NS(=O)(=O)c1ccccc1-c1ccc(-c2ccc(N)nc2)c(F)c1 [Example 349, 4′-(6-aminopyridin-3-yl)-3′-fluoro-N-(tert-pentyl)-[1,1′-biphenyl]-2-sulfonamide]
2.4 | CC(C)(NS(=O)(=O)c1ccccc1-c1ccc(-c2ccc(N)nc2)c(F)c1)C(F)(F)F [Example 350, 4′-(6-aminopyridin-3-yl)-3′-fluoro-N-(1,1,1-trifluoro-2-methylpropan-2-yl)-[1,1′-biphenyl]-2-sulfonamide]
1.4 | CC1(NS(=O)(=O)c2ccccc2-c2ccc(-c3ccc(N)nc3)c(F)c2)CCC1 [Example 353, 4′-(6-aminopyridin-3-yl)-3′-fluoro-N-(1-methylcyclobutyl)-[1,1′-biphenyl]-2-sulfonamide]
1.2 | C[C@@H](CO)NS(=O)(=O)c1ccccc1-c1ccc(-c2cnc3[nH]ccc3c2)c(F)c1 [Example 362, 3′-Fluoro-N-[(1S)-2-hydroxy-1-methylethyl]-4′-(1H-pyrrolo[2,3-b]pyridin-5-yl)biphenyl-2-sulfonamide]
0.6 | C[C@H](CO)NS(=O)(=O)c1ccccc1-c1ccc(-c2cnc3[nH]ccc3c2)c(F)c1 [Example 363, 3′-Fluoro-N-[(1R)-2-hydroxy-1-methylethyl]-4′-(1H-pyrrolo[2,3-b]pyridin-5-yl)biphenyl-2-sulfonamide]
2.5 | O=C1NCC[C@@H]1NS(=O)(=O)c1ccccc1-c1ccc(-c2cnc3[nH]ccc3c2)c(F)c1 [Example 364, 3′-Fluoro-N-[(3S)-2-oxopyrrolidin-3-yl]-4′-(1H-pyrrolo[2,3-b]pyridin-5-yl)biphenyl-2-sulfonamide]
1.9 | CN(C)S(=O)(=O)c1ccccc1-c1ccc(-c2cnc3[nH]ccc3n2)c(F)c1 [Example 370, 3′-Fluoro-N,N-dimethyl-4′-(5H-pyrrolo[2,3-b]pyrazin-2-yl)biphenyl-2-sulfonamide]
